Assay results from article PMC7024208, “In Silico and In Vitro Experimental Studies of New Dibenz[b,e]oxepin-11(6H)one O-(arylcarbamoyl)-oximes Designed as Potential Antimicrobial Agents” (Molecules, 2020).
≈ marks a conversion by molar mass, not a printed value. Read-outs that look alike come from different tables or passages of the source.

Assays:
B. subtilis ATCC 6633 [1] = assay: Qualitative antimicrobial screening, adapted disk diffusion; type: cell-based, Bacillus subtilis; design: zone of inhibition: dose or concentration left out as unconfirmed
Experimental: (§1) The antimicrobial activities of the synthesized compounds were determined against ATCC reference and clinical microbial strains, i.e., Bacillus subtilis ATCC 6633, Staphylococcus aureus ATCC 25923, Escherichia coli ATCC 25922, Klebsiella pneumoniae 350, Pseudomonas aeruginosa 1671 and Candida albicans ATCC 10231, using as positive controls the antibiotic ticarcillin and the antifungal agent fluconazole. Microbial suspensions of 1.5 × 10^8 CFU/mL corresponding to 0.5 McFarland density obtained from 15–18 h bacterial cultures developed on solid media were used in our experiments. The antimicrobial activity was tested on Mueller-Hinton Agar (MHA) medium, while a Yeast Peptone Glucose (YPG) medium was used in case of C. albicans. The obtained compounds were solubilized in DMSO and the starting stock solution was of 5000 μg/mL concentration. The qualitative screening was performed by an adapted disk diffusion method as previously reported.

S. aureus ATCC 25923 [2] = assay: as above; type: cell-based, Staphylococcus aureus; design: zone of inhibition: dose or concentration left out as unconfirmed; settings: Staphylococcus aureus
Experimental: as §1

P. aeruginosa ATCC 27853 = assay: as above; type: cell-based; design: zone of inhibition: dose or concentration left out as unconfirmed; settings: Pseudomonas aeruginosa
E. coli ATCC 25922 [3] = assay: as above; type: cell-based, Escherichia coli; design: zone of inhibition: dose or concentration left out as unconfirmed; settings: Escherichia coli
Experimental: as §1

K. pneumoniae 1771 = assay: as above; type: cell-based, Klebsiella pneumoniae; design: zone of inhibition: dose or concentration left out as unconfirmed
C. albicans ATCC 10231 [4] = assay: as above; type: cell-based, Candida albicans; design: zone of inhibition: dose or concentration left out as unconfirmed
Experimental: as §1

B. subtilis ATCC 6633 [5] = assay: MIC by liquid medium microdilution; type: cell-based, Bacillus subtilis; settings: B. subtilis ATCC 6633, 24 h at 37 °C
Experimental: as §1
(§2) The quantitative assay of the antimicrobial activity was performed by the liquid medium microdilution method, in 96 multi-well plates, in order to establish the minimal inhibitory concentration (MIC). In this purpose, serial two-fold dilutions of the compounds ranging between 5000 and 4.8 µg/mL were performed in a 200 µL volume of broth and each well was seeded with 50 µL of microbial inoculum. Sterility control (wells containing only culture medium) and culture controls (wells containing culture medium seeded with the microbial inoculum) were used. The influence of the DMSO solvent was also quantified in a series of wells containing DMSO [36], diluted accordingly with the dilution scheme used for the compounds and for the positive controls.

C. albicans ATCC 10231 [6] = assay: MIC by liquid medium microdilution; type: cell-based; settings: Candida albicans, ATCC10231, 24 h
Experimental: as §1, §2

E. coli ATCC 25922 [7] = assay: MIC by liquid medium microdilution; type: cell-based; settings: Escherichia coli
Experimental: as §1, §2

S. aureus ATCC 25923 [8] = assay: MIC by liquid medium microdilution; type: cell-based; settings: Staphylococcus aureus
Experimental: as §1, §2

B. subtilis ATCC 6633 [9] = assay: Antibiofilm activity (MBEC), micro-titer method on plastic inert substratum; type: cell-based, Bacillus subtilis; settings: B. subtilis ATCC 6633 biofilm on plastic substratum
Experimental: (§3) The assessment of the new compounds influence on the microbial ability to colonize the plastic inert substratum was performed by the micro-titer method, following previously described protocols. The absorbance at 490 nm was measured with an LB 911 ELISA reader (Apollo, Berthold Technologies GmbH & Co. KG, Bad Wildbad, Germany). All biological experiments were performed in triplicates.

S. aureus ATCC 25923 [10] = assay: as above; type: cell-based, Staphylococcus aureus; settings: S. aureus ATCC 25923 biofilm on plastic substratum
Experimental: as §3

E. coli ATCC 25922 [11] = assay: as above; type: cell-based, Escherichia coli; settings: E. coli ATCC 25922 biofilm on plastic substratum
Experimental: as §3

C. albicans ATCC 10231 [12] = assay: as above; type: cell-based, Candida albicans; settings: C. albicans ATCC 10231 biofilm on plastic substratum
Experimental: as §3

[13] = Cytotoxicity, CellTiter Assay; type: cell-based; settings: human, HCT8 cells, 400–10 µg/mL tested
Experimental: (§4) For the in vitro assessment of the cytotoxic effect, the HCT8 cells and the CellTiter Assay kit (Promega, Madison, WI, USA) and Annexin V-FITC Apoptosis Detection Kit I (BD Bioscience Pharmingen, Franklin Lakes, NJ, USA) were used. Briefly, for CellTiter Assay, 1 × 10^4 cells/well were plated in 96 well plate and 24 h after, were treated with the new compound at final concentration between 400 µg/mL–10 µg/mL. The viability was evaluated after 24 h by adding CellTiter aqueous solution and reading to spectrophotometer according to the manufacturer indications. The IC50 were calculated from the percent of viability reported to untreated cells using on line tools https://www.aatbio.com/tools/ic50-calculator. For Annexin V-FITC Apoptosis Detection Kit I, 5 × 10^5 cells were seeded in 3.5 cm diameter Petri dish and treated with 100 µg/mL compounds solution for 24 h. The total cells were resuspended in 100 µL of binding buffer, and stained with 5 µL Annexin V-FITC and 5 µL propidium iodide for 10 min in dark. At least 10,000 events from each sample were acquired using a flow cytometer (Beckman Coulter, Indianapolis, IN, USA). The percentage of cells affected by the treatment was determined by subtracting the percentage of apoptotic/necrotic cells in the untreated population from percentage of apoptotic cells in the treated population.

[14] = Annexin V-FITC/propidium iodide apoptosis analysis by flow cytometry; type: cell-based; settings: human, HCT8 cells, Annexin V-FITC/PI, read-out: viable cells (Q4)
Experimental: as §4

Question: What does the source list for `Cc1cccc(NC(=O)ON=C2c3ccccc3COc3ccccc32)c1` [Compound 7a, 6,11-Dihydrodibenz[b,e]oxepin-11(6H)one O-(3-tolyl-carbamoyl)oxime]?
Answer: growth inhibition diameter (B. subtilis ATCC 6633 [1]; B. subtilis ATCC 6633, adapted diffusion assay): anti-B. subtilis; zone of inhibition (B. subtilis ATCC 6633 [1]; Bacillus subtilis, ATCC6633, read-out: growth inhibition diameter): 8 mm; zone of inhibition (S. aureus ATCC 25923 [2]; ATCC25923, read-out: growth inhibition diameter): 0 mm; zone of inhibition (P. aeruginosa ATCC 27853; ATCC27853, read-out: growth inhibition diameter): 0 mm; zone of inhibition (E. coli ATCC 25922 [3]; ATCC25922, read-out: growth inhibition diameter): 0 mm; zone of inhibition (K. pneumoniae 1771; Klebsiella pneumoniae, 1771, read-out: growth inhibition diameter): 0 mm; growth inhibition diameter (C. albicans ATCC 10231 [4]; C. albicans ATCC 10231, adapted diffusion assay): anti-C. albicans activity; zone of inhibition (C. albicans ATCC 10231 [4]; Candida albicans, ATCC10231, read-out: growth inhibition diameter): 8 mm; MIC (B. subtilis ATCC 6633 [5]): 4.8 µg/mL (≈ 13.4 µM); MIC (B. subtilis ATCC 6633 [5]; Bacillus subtilis, ATCC6633, 24 h): 4.8 to 39 µg/mL (≈ 13.4 to 109 µM); MIC (C. albicans ATCC 10231 [6]): 4.8 µg/mL (≈ 13.4 µM); MIC (E. coli ATCC 25922 [7]; ATCC25922, 24 h): > 5000 µg/mL; MIC (S. aureus ATCC 25923 [8]; ATCC25923, 24 h): > 5000 µg/mL; MBEC (B. subtilis ATCC 6633 [9]): 156 µg/mL; MBEC (S. aureus ATCC 25923 [10]): 39 µg/mL; MBEC (E. coli ATCC 25922 [11]): 625 µg/mL; MBEC (C. albicans ATCC 10231 [12]): 39 µg/mL; IC50 at 24 h [13]: 264 µg/mL (≈ 737 µM); viability at 24 h, 100 µg/mL [14]: 84.2%

Question: Which results are given for `CC1(C)S[C@@H]2[C@H](NC(=O)[C@H](C(=O)O)c3ccsc3)C(=O)N2[C@H]1C(=O)O` [Ticarcillin, ticarcillin, reference compound]?
Answer: zone of inhibition at 5000 µg/mL (stock) (B. subtilis ATCC 6633 [1]; Bacillus subtilis, ATCC6633, B. subtilis ATCC 6633, adapted diffusion assay, read-out: growth inhibition diameter): 15 mm; zone of inhibition at 5000 µg/mL (stock) (S. aureus ATCC 25923 [2]; ATCC25923, S. aureus ATCC 25923, adapted diffusion assay, read-out: growth inhibition diameter): 21 mm; zone of inhibition at 5000 µg/mL (stock) (P. aeruginosa ATCC 27853; ATCC27853, P. aeruginosa ATCC 27853, adapted diffusion assay, read-out: growth inhibition diameter): 17 mm; zone of inhibition at 5000 µg/mL (stock) (E. coli ATCC 25922 [3]; ATCC25922, E. coli ATCC 25922, adapted diffusion assay, read-out: growth inhibition diameter): 24 mm; zone of inhibition at 5000 µg/mL (stock) (K. pneumoniae 1771; Klebsiella pneumoniae, K. pneumoniae 1771, adapted diffusion assay, read-out: growth inhibition diameter): 0 mm; MIC (B. subtilis ATCC 6633 [5]; Bacillus subtilis, ATCC6633, 24 h, read-out: MIC): 78 µg/mL (≈ 203 µM); MIC (E. coli ATCC 25922 [7]; ATCC25922, E. coli ATCC 25922, 24 h at 37 °C, read-out: MIC): 19.5 µg/mL (≈ 50.7 µM); MIC (S. aureus ATCC 25923 [8]; ATCC25923, S. aureus ATCC 25923, 24 h at 37 °C, read-out: MIC): 9.76 µg/mL (≈ 25.4 µM); MBEC (B. subtilis ATCC 6633 [9]): 156 µg/mL; MBEC (S. aureus ATCC 25923 [10]): 156 µg/mL; MBEC (E. coli ATCC 25922 [11]): 625 µg/mL
